Assays:
EOL1 = assay: Cytotoxicity against FIP1L1-PDGFRA positive human EOL-1 cells assessed as growth inhibition after 72 hrs by resazurin dye-based fluorescence analysis; type: functional; settings: EOL1, 72 h
HCC827 = assay: Cytotoxicity against human HCC827 cells assessed as growth inhibition after 72 hrs by resazurin dye-based fluorescence analysis; type: functional; settings: HCC827, 72 h
[1] = Cytotoxicity against human BJ cells assessed as growth inhibition after 72 hrs by resazurin dye-based fluorescence analysis; type: cell-based
K562 = assay: Cytotoxicity against human K562 cells assessed as growth inhibition after 72 hrs by resazurin dye-based fluorescence analysis; type: functional; settings: K562, 72 h
[2] = Cytotoxicity against human CEM cells assessed as growth inhibition after 72 hrs by resazurin dye-based fluorescence analysis; type: cell-based; settings: CEM (CCRF-CEM) cells

Structure (SMILES) | GI50 (EOL1) | GI50 (HCC827) | GI50 at 72 h [1] | GI50 (K562) | GI50 at 72 h [2]
NCCCCNc1nc(Nc2ccc(Oc3nccs3)cc2)c2ncn(C3CCCC3)c2n1 | 118 nM | 6310 nM | 18600 nM | 5980 nM | 8640 nM
N[C@H]1CC[C@H](Nc2nc(Nc3ccc(N4CCN(Cc5ccccc5)CC4)cc3)c3ncn(CCCO)c3n2)CC1 | 58 nM | 2380 nM | 16500 nM | 2670 nM | 4560 nM
NCCCCNc1nc(Nc2ccc(N3CCN(Cc4ccccc4)CC3)cc2)c2ncn(C3CCC(O)C3)c2n1 (centres undefined) | 46 nM | 2290 nM | 13200 nM | 1630 nM | 3670 nM
OCCCCNc1nc(Nc2ccc(CN3CCOCC3)cc2)c2ncn(CCCO)c2n1 | 294 nM | 10600 nM | 20800 nM | 4740 nM | 5170 nM
N[C@H]1CC[C@H](Nc2nc(Nc3cccc(CN4CCOCC4)c3)c3ncn(C4CCC(O)C4)c3n2)CC1 (some centres undefined) | 9 nM | 1670 nM | > 40000 nM | 1850 nM | 1650 nM
N[C@H]1CC[C@H](Nc2nc(Nc3cccc(CN4CCOCC4)c3)c3ncn(C4CCCC4)c3n2)CC1 | 12 nM | 1180 nM | 14700 nM | 1280 nM | 1360 nM
N[C@H]1CC[C@H](Nc2nc(Nc3cccc(CN4CCOCC4)c3)c3ncn(CCCO)c3n2)CC1 | 75 nM | 25500 nM | > 40000 nM | > 40000 nM | > 40000 nM
NCCCCNc1nc(Nc2ccc(CN3CCOCC3)cc2)c2ncn(CCCO)c2n1 | 138 nM | 19000 nM | 35000 nM | 9360 nM | 8200 nM
N[C@H]1CC[C@H](Nc2nc(Nc3ccc(CN4CCOCC4)cc3)c3ncn(CCCO)c3n2)CC1 | 164 nM | 18400 nM | > 40000 nM | 9920 nM | 34500 nM
OCCCCNc1nc(Nc2cccc(CN3CCOCC3)c2)c2ncn(C3CCCC3)c2n1 | 282 nM | 8130 nM | 25700 nM | 30400 nM | 11100 nM
OCCCCNc1nc(Nc2ccc(CN3CCOCC3)cc2)c2ncn(C3CCCC3)c2n1 | 202 nM | 2510 nM | 22800 nM | – | 3480 nM
OCCCCNc1nc(Nc2ccc(Oc3nccs3)cc2)c2ncn(C3CCCC3)c2n1 | 489 nM | 6050 nM | 23500 nM | 6080 nM | 13400 nM
Nc1ccccc1-c1ccc(Nc2nc(N[C@H]3CC[C@H](N)CC3)nc3c2ncn3C2CCCC2)cc1 | 18 nM | 810 nM | 12500 nM | 1070 nM | 677 nM
N[C@H]1CC[C@H](Nc2nc(Nc3ccc(-c4ccoc4)nc3)c3ncn(C4CCCC4)c3n2)CC1 | 17 nM | 632 nM | 13100 nM | 876 nM | 619 nM
N[C@H]1CC[C@H](Nc2nc(Nc3ccc(Oc4nccs4)cc3)c3ncn(C4CCCC4)c3n2)CC1 | 8 nM | 692 nM | 6850 nM | 676 nM | 650 nM
NCCCCNc1nc(Nc2ccc(CN3CCOCC3)cc2)c2ncn(C3CCCC3)c2n1 | 49 nM | 2040 nM | 9540 nM | 2790 nM | 3040 nM
N[C@H]1CC[C@H](Nc2nc(Nc3ccc(N4CCN(Cc5ccccc5)CC4)cc3)c3ncn(C4CCCC4)c3n2)CC1 | 22 nM | 918 nM | 10000 nM | 970 nM | 582 nM
N[C@H]1CC[C@H](Nc2nc(Nc3ccc(-c4ccccc4O)nc3)c3ncn(C4CCCC4)c3n2)CC1 | 85 nM | 653 nM | 6350 nM | 500 nM | 617 nM
OCCCCNc1nc(Nc2ccc(N3CCN(Cc4ccccc4)CC3)cc2)c2ncn(CCCO)c2n1 | 1010 nM | 9800 nM | > 40000 nM | 8670 nM | 27900 nM

From ChEMBL document CHEMBL4342414, “Activity of 2,6,9-trisubstituted purines as potent PDGFRα kinase inhibitors with antileukaemic activity” (Eur J Med Chem, 2019)
